From US8883962B2, “Zinc-responsive peptides, and methods of use thereof” (Massachusetts Institute of Technology, priority 2012, dated 2014)
“And” between values parts separate entries of the source, which are not always exact repeats. Identical values can stand only once. Counter-ions that a name gives are not always drawn. The star is where a group is joined. ZP1 = ZinPyr-1 zinc sensor: fluorescein platform with two dipicolylamine metal-binding arms, attached via its 6-CO2H; Palmitoyl = CCCCCCCCCCCCCCCC(=O)*

Tests used:
[1] = 50 mM PIPES buffer (pH 7), 100 mM KCl; read-out: Kd-Zn (known); cited from earlier work
[2] = in 0.1 M H2SO4; cited from earlier work
[3] = Apparent zinc-binding affinity (Kd-Zn) by fluorescence titration in buffered zinc solution; details: CaEDTA buffered solution, 25 mM PIPES (pH 7), 50 mM KCl, 50% acetonitrile
Procedure: Apparent zinc-binding affinities (Kd-Zn) were determined by a modified literature procedure. Walkup, G. K.; et al. J. Am. Chem. Soc. 2000, 122, 5644. For each zinc-binding titration, 1 mM EDTA and 2 mM CaCl2 were added to the MeCN/PIPES buffered solution. Palm-ZP1 or ZP1 was added, and the system was allowed to reach equilibrium (30 min). Aliquots of ZnCl2 were successively added, and the emission spectra recorded once the emission spectrum stabilized (˜30 min). The amount of free zinc for a given concentration of total zinc was calculated using the maxchelator program (http://maxchelator.stanford.edu/webmaxc/webmaxcS.htm) based on initial values of 1 mM EDTA, 2 mM CaCl2, an ionic strength of I=0.05 mol dm^−3, and a pH of 7.0. Due to the addition of acetonitrile to the buffered solution, we compared the apparent Kd-Zn for Palm-ZP1 to ZP1 under identical conditions (FIG. 25 and FIG. 29).
Apparent zinc-binding affinities (Kd-Zn) were determined using a modified literature procedure. Fahrni, C. J.; et al. J. Am. […] Aliquots of ZnCl2 were successively added, and the emission spectra recorded once the emission spectrum stabilized (˜30 min). The amount of free zinc for a given concentration of total zinc was calculated using the maxchelator program (http://maxchelator.stanford.edu/webmaxc/webmaxcS.htm) based on initial values of 2 mM EGTA at an ionic strength of I=0.05 mol dm^−3 and a pH of 7.0. […]

[4] = Photophysical characterization (absorbance, emission, quantum yield) without and with zinc; type: physicochemical; details: 25 mM PIPES (pH 7), 50 mM KCl
Procedure: To investigate whether the zinc-sensing properties of the ZP1 moiety withstood the conditions of SPPS, we studied the zinc-binding and photophysical properties of Palm-ZP1 in vitro. Due to the hydrophobic palmitoyl moiety, we used a mixed solvent system consisting of 25 mM PIPES buffer (pH 7) with 50 mM KCl and 50% acetonitrile (v/v). In the absence of zinc, Palm-ZP1 has spectral features that are similar to those of other ZP1 derivatives. Apo Palm-ZP1 has a λabs=518 nm and λem=534 nm (φapo=0.16±0.05) (FIG. 24 and FIG. 29). Addition of ZnCl2 to a solution of Palm-ZP1 produced a characteristic blue-shift in absorption and emission spectra (λabs=505 nm; λem=527 nm) and an enhancement of fluorescence (φZn=0.79±0.05) (FIG. 16a).
ZQ-MPP was prepared manually using standard solid phase methodology. […] In the absence of zinc, ZQ-MPP has two main absorption bands with maxima at λabs=243 and 336 nm (FIG. 26), and is essentially non-emissive (φ≦0.002). Addition of ZnCl2 gives rise to two new features in the absorption spectrum (λabs=264 and 358 nm), and a large increase (>100-fold; φ=0.36±0.01) in fluorescence intensity (λem=484 nm, FIG. 16b, 26, and Table 30).
Spectroscopic measurements for Palm-ZP1 were carried out in a mixed solvent system consisting of 25 mM PIPES buffer (pH 7) with 50 mM KCl and 50% acetonitrile (v/v) (FIG. 24). Except where noted, all fluorescence data were obtained by exciting at 495 nm and observing from 500-650 nm, with 0.1 sec integration time and slit widths of 0.4 mm (1.6 nm). Emission spectra represent the average of three scans. The quantum yield of Palm-ZP1 was referenced to fluorescein in 0.1 M NaOH(aq), which has a known quantum yield of φ=0.95. Lakowicz, J. R. Principles of fluorescence spectroscopy; 2nd ed.; Kluwer Academic/Plenum: New York, 1999.
Characterization of ZQ-MPP (FIG. 26) was performed in 25 mM PIPES buffer (pH 7) with 50 mM KCl, and 50% (v/v) acetonitrile. Zinc affinities (Kd-Zn) were compared to TSQ under identical conditions (FIG. 27 and FIG. 30). Quantum yields for ZQ-MPP and TSQ were reference to quinine sulfate in 0.1 M H2SO4, which has a known quantum yield of (I)=0.58. Eastman, J. W. Photochem. Photobio. 1967, 6, 55.

HeLa cells [5] = test: Live cell imaging of zinc-induced fluorescence turn-on; type: cell-based
Procedure: To assess the ability of Palm-ZP1 to function within a cellular environment, we conducted live cell imaging experiments. HeLa cells were incubated with a 10 μM solution of Palm-ZP1 in Dulbecco's Modified Eagle Medium (DMEM) for 30 min (37° C., 5% CO2) prior to imaging. Initial cell images had minimal ZP1 emission, consistent with the low quantum yield for the apo form of the sensor. […] Subsequent addition of 100 μM EDTA, a cell-impermeable chelator, attenuated the fluorescent signal to initial levels within 5 min, further confirming that the zinc-induced fluorescence increase occurs extracellularly.
(§1) We carried out live cell imaging experiments to determine whether ZQ-MPP could target mitochondria and report on changes in zinc concentrations. HeLa cells were pretreated with a 25 μM solution of ZQ-MPP, which also contained MitoTracker Red as an internal mitochondria tracker (see later examples). […] The localization of ZQ-MPP was investigated with multichannel fluorescence microscopy. Visually, the distribution of MitoTracker Red (FIG. 19b) and ZQ-MPP (FIG. 19c) appear nearly identical. Overlaying the images (FIG. 19d) and calculating the Pearson's correlation coefficient yields an r=0.71±0.01, indicating strong colocalization.
HeLa cells were cultured at 37° C. under a 5% CO2 humidified atmosphere in Dulbecco's Modified Eagle Medium (High Glucose DMEM, Invitrogen) supplemented with 10% fetal bovine serum (FBS, HyClone), penicillin (100 μg/mL), and streptomycin (100 μg/mL). For live cell imaging, cells were seeded in 35-mm poly-D-Lys coated glass-bottom culture dishes (MatTek Corporation).
Palm-ZP1 (10 μM) was incubated for 30 min at 37° C. and 5% CO2 in DMEM. For multichannel imaging and co-localization studies, staining of the plasma membrane was accomplished by addition of Cell Mask Orange (Life Technologies, final concentration 2.5 μg/mL) for 15-20 min. Prior to imaging, cells were rinsed with warm dye- and serum-free DMEM (2×2 mL) and bathed in warm dye- and serum-free DMEM (2 mL). To assess the zinc responsiveness of Palm-ZP1, stock solutions of ZnCl2 (10 mM) were diluted in warm dye- and serum-free DMEM to a final ZnCl2 concentration of 50 μM. The zinc-enriched media was exchanged in the cell culture dish directly on the microscope stage. […]
(§2) The imaging experiments were performed using a Zeiss Axiovert 200M inverted epifluorescence microscope equipped with an EM-CCD digital camera (Hamamatsu) and a MS200 XY Piezo Z stage (Applied Scientific Instruments). The light source was an X-Cite 120 metal-halide lamp (EXFO) and the fluorescence images were obtained using an oil-immersion objective at 63× magnification. […]

HeLa cells [6] = test: Localization study in live cells by multichannel fluorescence microscopy (Pearson's correlation coefficient); type: cell-based
Procedure: We next explored whether Palm-ZP1 selective accumulates in the plasma membrane. […] Quantitative image analysis corroborated these findings: Palm-ZP1 and Cell Mask Orange strongly co-localize with a Pearson's correlation coefficient of r=0.70±0.05.
as §1
Palm-ZP1 (10 μM) was incubated for 30 min at 37° C. and 5% CO2 in DMEM. For multichannel imaging and co-localization studies, staining of the plasma membrane was accomplished by addition of Cell Mask Orange (Life Technologies, final concentration 2.5 μg/mL) for 15-20 min. Prior to imaging, cells were rinsed with warm dye- and serum-free DMEM (2×2 mL) and bathed in warm dye- and serum-free DMEM (2 mL). […]
as §2
To calculate r, images were first deconvoluted using a calculated point-spread function (PSF) map based on emission wavelength, refractive index of the media (n=1.518), and the numerical aperture (1.4). Deconvoluted channels (i.e., sensor and organelle trackers) were merged and analyzed. For each image, a minimum of three regions-of-interest (ROI) were selected and the r-value calculated using an ImageJ plugin. […]

O=C1OC2(c3ccccc31)c1cc(Cl)c(O)c(CN(Cc3ccccn3)Cc3ccccn3)c1Oc1c2cc(Cl)c(O)c1CN(Cc1ccccn1)Cc1ccccn1 [ZP1]
Kd [1]: 0.7 nM

C=C[C@H]1C[N@@]2CC[C@H]1C[C@H]2[C@H](O)c1ccnc2ccc(OC)cc12 [quinine sulfate]
known quantum yield (reference standard) [2]: 0.58

Palmitic acid-PPPDDK(ZPI)-CONH2 (Palmitoyl-PPPDDK(ZP1)-NH2; not fully specified) [Palm-ZP1]
Kd-Zn compared with ZP1 [3]: closely approximates the Kd-Zn of ZP1
quantum yield φ, absence of zinc (apo) ([4]; 50% acetonitrile (v/v)): 0.16±0.05
quantum yield φ, zinc-bound ([4]; 50% acetonitrile (v/v)): 0.79±0.05
λabs after addition of ZnCl2 ([4]; 50% acetonitrile (v/v)): 505 nm
λabs, absence of zinc (apo) ([4]; 50% acetonitrile (v/v)): 518 nm
λem after addition of ZnCl2 ([4]; 50% acetonitrile (v/v)): 527 nm
λem, absence of zinc (apo) ([4]; 50% acetonitrile (v/v)): 534 nm
increase in ZP1 fluorescence intensity at the peripheral membrane (HeLa cells [5]; 10 μM probe, addition of 50 μM ZnCl2, no ionophore): ~1.7 fold
time for fluorescent signal to be attenuated to initial levels (HeLa cells [5]; addition of 100 μM EDTA): ≤ 5 min
Pearson's correlation coefficient r with Cell Mask Orange (plasma membrane) (HeLa cells [6]): 0.70±0.05
localization in cells (HeLa cells [6]; multichannel fluorescence microscopy): preferentially localize to the plasma membrane

zinquin-FxrFxrFxr-CONH2 [ZQ-MPP]
quantum yield φ, absence of zinc (apo) ([4]; 50% acetonitrile (v/v)): ≤ 0.002
quantum yield φ, zinc-bound ([4]; 50% acetonitrile (v/v)): 0.36±0.01
λabs after addition of ZnCl2 ([4]; 50% acetonitrile (v/v)): 264 nm and 358 nm
λabs, absence of zinc (apo) ([4]; 50% acetonitrile (v/v)): 243 nm and 336 nm
λem after addition of ZnCl2 ([4]; 50% acetonitrile (v/v)): 484 nm
increase in fluorescence intensity upon addition of ZnCl2 ([4]; in vitro, 50% acetonitrile): > 100 fold
increase in ZQ-MPP intensity (HeLa cells [5]; 25 μM probe, addition of 50 μM zinc/pyrithione): ~15 fold
signal after addition of zinc chelator (HeLa cells [5]; addition of 100 μM TPEN): returned to near baseline levels
Pearson's correlation coefficient r with MitoTracker Red (mitochondria) (HeLa cells [6]): 0.71±0.01
